Tested on: skin of colored guinea pigs having melanin pigment-producing cells
Assay: Dermal regeneration enhancing action of liquid crystal versus its constituting components on guinea pig skin (Example 4)
Format: in vivo, guinea pigs (Weiser Maples)
Details: 30 mg on 2 cm×2 cm shaved back; each sample solely applied
Procedure: Back of colored guinea pigs having melanin pigment-producing cells (Weiser Maples; six weeks age; male) was shaved, the shaved part was washed with lukewarm water and 30 mg of the above lyotropic liquid crystal was applied to an area of 2 cm×5 cm thereof. After 2 days from the application date under irradiation with any of UVA, UVB and UVA+UVB, skin of the part to which the lyotropic liquid crystal was applied was collected and the slice was fixed with formalin, embedded in paraffin and stained by a Fontana-Masson method where melanin pigment was stained out in black to evaluate the dermal regeneration enhancing action.
Back of colored guinea pigs having melanin pigment-producing cells (Weiser Maples, five weeks age, male) was shaved, the shaved part was washed with lukewarm water, each 30 mg of the four kinds of samples of the lyotropic crystal of (A) of Example 1 and the constituting components thereof—surfactant, oil and polyhydric alcohol—was applied to an area of 2 cm×2 cm thereof and the dermal regeneration enhancing action was evaluated by the method mentioned in (A) of Example 1. Cross-sectional pictures of the skin to which each of the samples was applied are shown in FIG. 6 together with the cross-sectional picture of the skin to which nothing was applied.

Structure (SMILES) | dermal regeneration enhancing action
OCC(O)CO [polyhydric alcohol, glycerol] | no dermal regeneration enhancing action was noted
CC(C)CCCC(C)CCCC(C)CCCCC(C)CCCC(C)CCCC(C)C (centres unmarked) [oil, squalane] | no dermal regeneration enhancing action was noted

— patent US20100305215A1, “DERMAL REGENERATION ENHANCER” (JAPAN SCIENCE AND TECHNOLOGY AGENCY, priority 2005, published 2010)
